Assay results from publication PMC12298007 (Pharmaceuticals, 2025).
Non-standard residues stand in square brackets, D forms with d. Residues, ends and D or L forms follow the SMILES beside them. *: point of attachment. X1 = O=C(O)CC[C@H](NC(=O)N[C@@H](CCCCNC(=O)CCCCCCC(=O)*)C(=O)O)C(=O)O; d2Nal = N[C@H](Cc1ccc2ccccc2c1)C(=O)O; Mercaptoacetyl = O=C(CS)*

Biological target: T1, human PSMA (CHO-K1-PSMA cells) (Homo sapiens, UniProt Q04609)
T1 construct: host or cells: CHO-K1 (lentiviral transduction, clone 5)
Test: Saturation binding assay on CHO-K1-PSMA cells
Conditions: 2 h at 4 °C
Experimental: Saturation binding experiments were carried out with increasing concentrations of the radiolabeled peptides for 2 h at 4 °C. […] Cells were processed as previously published. […] The next day, the culture medium was replaced with 0.8 mL Ham's F 12 Nutrient Mix (1% FBS), and the cells were kept in the fridge for 30 min before the addition of the radioligand. […] The saturation assay was performed at 4 °C to avoid internalization. […] Total incubation volume per well: 1 mL. […] The obtained fractions and standard aliquots were measured in a γ-counter. […] Human GRPR reverse: [NT] Human β-ACTIN forward: [NT] Human β-ACTIN reverse: [NT] 3.3.4 Western blot Total protein was isolated from cell lines as previously described. PierceTM Coomassie Plus (Bradford) Protein Assay Kit (Thermo Scientific, Cat.Nr. 23236) was used for measuring protein concentrations and 30 μg (for PSMA) or 40 μg (for GRPR) protein per sample was used for SDS-PAGE and Western blot as previously described. PSMA (CST, D4S1F) Rabbit, GRPR (Alomone labs, Cat.Nr. ABR-002) Rabbit, α-Tubulin (Proteintech, Cat.Nr. 66031-1-Ig) Mouse and β-Actin (Proteintech, Cat.Nr. 66009-1-Ig) Mouse antibodies were utilized for detection of protein expression. Secondary antibodies used, included goat anti -rabbit IgG HRP conjugate (JD111036047) and rabbit anti -mouse IgG HRP conjugate (JD315035008). […] (Figure 6B, Table 1, main manuscript). […] 21

T1 sequence (Q04609 whole entry): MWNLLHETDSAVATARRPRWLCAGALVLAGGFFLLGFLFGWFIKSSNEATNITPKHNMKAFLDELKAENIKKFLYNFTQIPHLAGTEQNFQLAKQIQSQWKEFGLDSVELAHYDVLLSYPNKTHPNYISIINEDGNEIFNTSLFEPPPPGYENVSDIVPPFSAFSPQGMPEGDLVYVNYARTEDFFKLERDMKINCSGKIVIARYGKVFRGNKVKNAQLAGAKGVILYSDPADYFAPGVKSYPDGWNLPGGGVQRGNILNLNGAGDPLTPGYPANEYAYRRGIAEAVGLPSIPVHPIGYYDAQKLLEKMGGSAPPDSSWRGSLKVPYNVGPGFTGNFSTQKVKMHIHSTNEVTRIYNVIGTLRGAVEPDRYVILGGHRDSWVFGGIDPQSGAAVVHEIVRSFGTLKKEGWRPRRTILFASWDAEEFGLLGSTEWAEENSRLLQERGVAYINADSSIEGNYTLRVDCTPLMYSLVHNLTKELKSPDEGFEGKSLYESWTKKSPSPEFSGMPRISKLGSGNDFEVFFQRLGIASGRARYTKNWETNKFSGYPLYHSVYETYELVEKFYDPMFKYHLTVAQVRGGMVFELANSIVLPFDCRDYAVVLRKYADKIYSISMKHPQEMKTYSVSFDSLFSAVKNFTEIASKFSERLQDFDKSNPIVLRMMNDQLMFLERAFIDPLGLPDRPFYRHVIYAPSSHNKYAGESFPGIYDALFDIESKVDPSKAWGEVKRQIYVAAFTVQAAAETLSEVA

Kd: 3.84 ± 0.44 nM
Structure (SMILES): O=C(O)CC[C@H](NC(=O)N[C@@H](CCCCNC(=O)CCCCCCC(=O)NCCCC[C@@H](NC(=O)[C@@H](Cc1ccc2ccccc2c1)NC(=O)[C@@H](Cc1ccc(O)cc1)NC(=O)[C@@H](CO)NC(=O)[C@@H](CO)NC(=O)[C@@H](CO)NC(=O)CS)C(=O)O)C(=O)O)C(=O)O [[^99mTc]Tc-PSMA-I&S, metal not drawn] (Mercaptoacetyl-[dS][dS][dS][dY][d2Nal][dK](X1)-OH)
